From patent US20020193425A1, “Cancer chemopreventative compounds and compositions and methods of treating cancers” (priority 2001, published 2002)

Columns and labels:
[1] = system: K562; assay: NBT-reduction differentiation assay, leukemic panel; format: cell-based; settings: 4 days
Method: Cell lines were tested using a 4-day incubation protocol, unless otherwise specified.
2) NBT/NSE/SE. Evaluation of NBT reduction was used to assess the ability of sample-treated cells to produce superoxide when challenged with TPA. A 1:1 (v/v) mixture of a cell suspension (10^6 cells) and TPA/NBT solution (2 mg/ml NBT and 1 μg/ml TPA in phosphate buffer saline (PBS)) was incubated for 1 h at 37° C. Then, cells were smeared on glass slides, and counterstained with 0.3% (w/v) safranin O in methanol. Positive cells reduce NBT yielding intracellular black-blue formazan deposits. NSE/SE are monocytic/granulocytic esterases that can be visualized by cytochemical staining using commercially available kits (α-Naphthyl Acetate Esterase and Naphthol As-D Chloroacetate Esterase kits, Sigma Chemical Co., St. Louis, Mo.). Positive-stained cells were quantified by microscopic examination of >200 cells. Results were expressed as a percentage of positive cells.
Concentration-dependent effect of brusatol on: (a) NBT-reduction (monocyte/granulocyte marker) of HL-60, K562, NB4, U937, and BV173 and (b) NSE expression (monocyte marker) in K562, Kasumi-1, NB4, and BV173 cells, respectively. Data points are the mean of duplicate samples.

[2] = Cytotoxicity, viability by Trypan blue exclusion; settings: human, K562 cells
Method: HL-60, K562, U937, Reh and Daudi cells were obtained from the American Type Culture Collection (Rockville, Md.). Kasumi-1, NB4, BV173, SUPB13, and RS4;11 cells were provided by the Section of Hematology/Oncology, University of Illinois College of Medicine, Chicago, Ill. All cell lines were maintained in suspension culture using RPMI 1640 medium supplemented with 10% heat-inactivated fetal bovine serum, 100 units of penicillin/ml and 100 μg of streptomycin/ml at 37° C. in a humidified atmosphere of 5% CO2 in air. All cells were routinely tested for mycoplasma contamination.
Cellular viability was monitored by Trypan blue exclusion. Inhibition of [3H]thymidine incorporation into DNA was determined to assess the level of cell proliferation as well as DNA synthesis inhibition. Cells were treated with test samples for four days and then placed into 96-well plates (100 μl) and treated with [3H]thymidine (0.5 μCi/ml, 65 Ci/mmol) for 18 h at 37° C. in a 5% CO2 incubator. Cells then were collected on glass fiber filters using a TOMTEC Harvester 96®. The filters were counted using a Microbeta™ liquid scintillation counter (Wallac, Turku, Finland) with scintillation fluid. Finally, the percentage of [3H]thymidine incorporation per 10^6 cells was calculated by dividing the dpm of sample-treated cells by the dpm of DMSO-treated cells.
^aViability was determined by Trypan blue exclusion in duplicate samples. […] Results are expressed as median inhibitory cell concentrations of two independent experiments (±standard deviations).

[3] = system: U937; assay: Cell cycle effects, DNA content by flow cytometry; format: cell-based; settings: Brusatol (25 ng/ml), 24 h
Method: (§1) About 10^6 cells from each sample were collected and washed twice with ice-cold PBS, fixed in 70% ethanol, and stored at 4° C. until analysis. The cells were stained with PI (50 μg/ml), treated with DNase-free RNase (10 μg/ml), and subjected to DNA content analysis using an EPICS Coulter flow cytometer. At least 10,000 cells were counted for each sample. The percentage of apoptotic cells was calculated by measuring the area under the sub-diploid (DNA <2 N) peak in the plot of cell number against cellular DNA content.
(§2) Cells were treated with solvent or brusatol (25 ng/ml) for 24 h, fixed in ethanol and stained with PI for flow cytometric analysis as described under “Materials and methods”. At least 10,000 cells were counted. Results are presented as the mean of triplicate samples (±standard deviation). G1=Gap1, S=Synthesis, G2/M=Gap2+Mitosis, Ap=sub-G1 apoptotic peak.

[4] = system: RS4,11; assay: Cell cycle effects, DNA content by flow cytometry; format: cell-based; settings: Brusatol (25 ng/ml), 24 h
Method: as §1, §2

[5] = system: Kasumi-1; assay: Cell cycle effects, DNA content by flow cytometry; format: cell-based; settings: Brusatol (25 ng/ml), 24 h
Method: as §1, §2

[6] = system: K562; assay: Cell cycle effects, DNA content by flow cytometry; format: cell-based; settings: Brusatol (25 ng/ml), 24 h
Method: as §1, §2

[7] = system: Reh; assay: Cell cycle effects, DNA content by flow cytometry; format: cell-based; settings: Brusatol (25 ng/ml), 24 h
Method: as §1, §2

[8] = system: SUPB13; assay: Cell cycle effects, DNA content by flow cytometry; format: cell-based; settings: Brusatol (25 ng/ml), 24 h
Method: as §1, §2

[9] = system: BV173; assay: Cell cycle effects, DNA content by flow cytometry; format: cell-based; settings: Brusatol (25 ng/ml), 24 h
Method: as §1, §2

[10] = system: NB4; assay: Cell cycle effects, DNA content by flow cytometry; format: cell-based; settings: Brusatol (25 ng/ml), 24 h
Method: as §1, §2

[11] = system: c-Myc oncoprotein, HL-60; assay: c-Myc oncoprotein expression, western blotting; format: cell-based, human
Method: The expression of c-Myc was assessed by immunoblots as previously described. In brief, cells (10^6) were treated and harvested at various time intervals, and whole-cell pellets were lysed with detergent lysis buffer (1 ml/10^7 cells, 50 mM Tris-HCl buffer, pH 8.0, 150 mM NaCl, 1 mM DTT, 0.5 mM EDTA, 1% Nonidet® P40, 0.5% sodium deoxycholate, 0.1% sodium dodecylsulfate, 100 μg/ml phenylmethylsulfonyl fluoride, 1 μg/ml aprotinin, 2 μg/ml leupeptin and 100 μM sodium vanadate) to obtain protein lysates. Protein concentrations were quantified using a bicinchoninic acid kit. Since c-Myc is a labile protein, cell lysates were not frozen, but stored at 4° C., until all protein lysates were prepared for a particular cell line, and then western blots were performed immediately. Total protein ([…]) was separated by 10% SDS-PAGE, electroblotted to PVDF membranes, and blocked overnight with 5% nonfat dry milk. The membrane was incubated with a solution of the primary antibody (2.5 μg/ml), prepared in 1% blocking solution, for 2 h at room temperature, washed three-times for 15 min with PBS-T (PBS with 0.1%, v/v, Tween 20), and incubated with a 1:2500 dilution of horseradish peroxidase-conjugated secondary antibody for 30 min at 37° C. Blots were again washed three-times for 10 min each in PBS-T and developed by enhanced chemiluminescence (Amersham). Membranes were exposed to Kodak Biomax film and the resulting film was analyzed using Kodak 1D Image Analysis software. Membranes were then stripped and reprobed for the quantification of bactin.
Cells were treated with solvent (0.1% v/v DMSO, control), brusatol (25 ng/ml) or bruceantin (10 ng/ml) for 4 or 24 h, then analyzed by western blotting. Membranes were probed for c-Myc, and then stripped and probed for β-actin as an internal control.
Cells were treated with brusatol (25 ng/ml) or bruceantin (10 ng/ml) for 4 or 24 h, and then analyzed for c-Myc and β-actin expression using western blotting techniques. Results are expressed as percentage of c-Myc oncoprotein of control (0.1%, v/v, DMSO treated cells) values. Results were normalized relative to β-actin.

COC(=O)[C@@]12OC[C@]34[C@H]([C@@H](O)[C@@H]1O)[C@@]1(C)CC(=O)C(O)=C(C)[C@@H]1C[C@H]3OC(=O)[C@H](OC(=O)C=C(C)C)[C@@H]24 [compound 1, brusatol]
NBT-reduction, peak induction [1]: 75%
IC50 at 4 days [2]: > 0.1 µg/mL
viability at 4 days, 100 ng/ml [2]: ~90%
G1 [3]: G1 = 45.4 ± 1.8
G2/M [3]: G2/M = 8.0 ± 1.6
S [3]: S = 46.6 ± 0.2
G1 [4]: G1 = 50.9 ± 0.4
G2/M [4]: G2/M = 3.4 ± 0.1
S [4]: S = 45.7 ± 0.2
G1 [5]: G1 = 77.4 ± 1.8
G2/M [5]: G2/M = 4.5 ± 0.2
S [5]: S = 18.1 ± 2.1
G1 [6]: G1 = 46.2 ± 0.6
G2/M [6]: G2/M = 5.6 ± 0.4
S [6]: S = 48.2 ± 0.3
G1 [7]: G1 = 78.8 ± 1.2
G2/M [7]: G2/M= 3.2 ± 0.4
S [7]: S = 18.0 ± 0.6
G1 [8]: G1 = 61.9 ± 2.1
G2/M [8]: G2/M = 8.7 ± 0.3
S [8]: S = 29.4 ± 1.8
Ap (sub-G1 apoptotic peak) [9]: Ap = 15.6 ± 0.2
G1 [9]: G1 = 57.0 ± 0.4
G2/M [9]: G2/M = 7.1 ± 0.1
S [9]: S = 35.9 ± 0.6
Ap (sub-G1 apoptotic peak) [10]: Ap = 37.2 ± 0.8
G1 [10]: G1 = 45.3 ± 0.8
G2/M [10]: G2/M = 7.3 ± 0.7
S [10]: S = 47.4 ± 0.1
decrease of c-Myc protein levels ([11]; 4 h treatment): 100%
c-Myc oncoprotein, percentage of control ([11]; Brusatol (25 ng/ml), 4 h): 0%
c-Myc oncoprotein, percentage of control ([11]; Brusatol (25 ng/ml), 24 h): 17%

COC(=O)[C@@]12OC[C@]34[C@H]([C@@H](O)[C@@H]1O)[C@@]1(C)CC(=O)C(O)=C(C)[C@@H]1C[C@H]3OC(=O)[C@H](OC(=O)/C=C(\C)C(C)C)[C@@H]24 [compound 2, bruceantin]
c-Myc oncoprotein, percentage of control ([11]; Bruceantin (10 ng/ml), 4 h): 3%
c-Myc oncoprotein, percentage of control ([11]; Bruceantin (10 ng/ml), 24 h): 57%
